Earlier results, collected in patent publication US9763924B2, “Aminoester derivatives” (CHIESI FARMACEUTICI S.P.A., priority 2014, dated 2017).

Test system: COPD patients
[1] = patients with severe disease who have frequent exacerbations and mucus hypersecretion

**Q.** For O=C(Nc1c(Cl)cncc1Cl)c1ccc(OC(F)F)c(OCC2CC2)c1 [roflumilast], which “reduction of the numbers of neutrophils in sputum” value (COPD patients, oral, given over 4 weeks) is on record?
**A.** Its value is 36%.

**Q.** What about the “improvement of FEV 1” value [1] of the same compound?
**A.** Its value is “approximately 50 mL”.

**Q.** And the reduction of exacerbation [1]?
**A.** The reduction of exacerbation was “about 15%”.
